From ChEMBL document CHEMBL1137128, “Quantitative structure-activity relationship analysis of a series of 2,3-diaryl benzopyran analogues as novel selective cyclooxygenase-2 inhibitors” (Bioorg Med Chem Lett, 2004)
pIC50: −log10 of the molar value.

Biological target: T1, Prostaglandin G/H synthase 2 (Mus musculus, UniProt Q05769)
T1 sequence (Q05769 whole entry): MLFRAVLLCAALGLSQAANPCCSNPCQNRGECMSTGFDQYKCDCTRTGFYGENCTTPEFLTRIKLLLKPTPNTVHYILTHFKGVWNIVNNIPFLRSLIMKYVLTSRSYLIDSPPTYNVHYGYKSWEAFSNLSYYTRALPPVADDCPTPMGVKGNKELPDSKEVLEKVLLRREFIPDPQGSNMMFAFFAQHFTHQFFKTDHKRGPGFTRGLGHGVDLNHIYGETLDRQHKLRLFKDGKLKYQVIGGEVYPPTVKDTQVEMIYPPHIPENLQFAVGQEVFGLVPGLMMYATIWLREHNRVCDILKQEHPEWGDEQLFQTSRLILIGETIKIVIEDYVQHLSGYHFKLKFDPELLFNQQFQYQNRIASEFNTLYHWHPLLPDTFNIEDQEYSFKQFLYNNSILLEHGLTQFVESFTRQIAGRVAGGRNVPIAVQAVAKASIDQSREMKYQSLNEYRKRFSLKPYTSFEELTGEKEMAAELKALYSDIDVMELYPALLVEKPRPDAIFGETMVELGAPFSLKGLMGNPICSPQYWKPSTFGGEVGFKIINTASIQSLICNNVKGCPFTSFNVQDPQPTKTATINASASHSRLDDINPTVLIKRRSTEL
Test: In vitro inhibitory activity against Prostaglandin G/H synthase 2 from mouse peritoneal macrophages

pIC50: 6.48
SMILES: CS(=O)(=O)c1ccc(-c2oc3ccccc3c(=O)c2-c2cc3ccccc3s2)cc1
